{"source": "patent US20220040144A1", "about": "“COMPOSITIONS AND METHODS FOR THE TREATMENT OF CUTANEOUS T CELL LYMPHOMA (CTCL)” (The State of Israel, Ministry of Agriculture & Rural …, priority 2018, published 2022)", "key": {"HUT78 cells": {"system": "HUT78 cells", "assay": "XTT cell viability assay on HUT78 cells", "type": "cell-based, human", "conditions": "CBD only, concentration equal to that in combined S4+S5 (7.3 μg/ml), 48 hours", "method": "(§1) XTT Cell Viability Assays—Cells were seeded in 96-wells plates at 10,000 cells per well in triplicates in DMEM or RPMI640 growing media. The following day, cells were treated with the different extracts, separated fractions and combinations thereof or pure compounds; or media or solvent only as control. To evaluate involvement of the CB1 and CB2 receptors, 10 μM of AM251 (a CB1 receptor inverse agonist, TOCRIS, 1117/1) or SR144528 (a CB2 receptor inverse agonist, Abcam) were added to the cells 1 hour prior to treatment. Cells were incubated for 48 hours and following XTT (2,3-bis(2-methoxy-4-nitro-5-sulfophenyl)-5-[(phenylamino)-carbonyl]-2H-tetrazolium inner salt) reduction was used to quantify viability according to manufacturer's instruction (BI, Kibbutz Beit-Haemek, Israel). Briefly, cells were incubated with XTT reagent for 2 hours at 37° C. in a humidified 5% CO2, 95% air atmosphere. Absorbance was recorded by a photometer Synergy H1 hybrid reader (BioTek) at 490 nm with 650 nm of reference wavelength. Cells survival was estimated according to the following equation: % cell survival=100×(At−Ac)(treatment)/(At−Ac)(control), where At and Ac are the absorbencies (490 nm) of the XTT colorimetric reaction in treated and control cultures, respectively, minus non-specific absorption measured at 650 nm. Absorbance of medium alone was also deducted from specific readings. […]"}, "MyLa cells": {"system": "MyLa cells", "assay": "XTT cell viability assay on MyLa cells, with Bliss synergy analysis", "conditions": "CBD 7.3 μg/ml, CBG 3.5 μg/ml, THC 0.044 μg/ml, CBC 0.027 μg/ml (as in S4 5 + S5 6 μg/mL), 48 hours", "method": "as §1"}}}
{"smiles": "C=C(C)[C@@H]1CCC(C)=C[C@H]1c1c(O)cc(CCCCC)cc1O", "note": "[CBD, cannabidiol]", "values": [{"measurement": "cell death of HuT-78 cells", "setting": "HUT78 cells", "result": 50, "unit": "%"}, {"measurement": "cytotoxicity of pure cannabinoids on My-La cells (in words)", "setting": "MyLa cells", "result": "did not induce cell death"}]}
